Experimental data reported in US12421212B2, “Substituted benzenecarboxamides as IL-17A modulators” (DiCE Alpha, Inc., priority 2019, dated 2025).

Target: T1, IL-17A/A (Homo sapiens, UniProt Q16552)
T1 construct: purchased Genscript Z03228
T1 sequence (Q16552 24-155): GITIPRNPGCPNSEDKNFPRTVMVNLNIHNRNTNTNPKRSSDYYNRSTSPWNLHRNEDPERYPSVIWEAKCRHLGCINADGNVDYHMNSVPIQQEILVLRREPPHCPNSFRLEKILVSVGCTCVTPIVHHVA
Test: IL-17A/A HEK-Blue Cell Assay
Type: cell-based
Settings: HEK-Blue IL-17A reporter cell line, SEAP readout at A630, 20 hours incubation with IL-17A/A; top concentration 10 uM, 1 uM or 0.3 uM

CCC(=O)N[C@H](Cc1ccc(NC(=O)[C@@H](NC(=O)c2cc(CC(C)C)nn2CC)C2CCCCC2)c(F)c1)C(=O)N1CCN(C)CC1 [Compound 773]
IL-17A/A inhibition (pIC50): X1b (compounds were evaluated up to 10 uM and inhibited activity at 10 uM by less than 20%)

CCC(=O)N[C@H](Cc1ccc(NC(=O)[C@@H](NC(=O)c2c3c(nn2CC)CCC3)C2CCCCC2)c(F)c1)C(=O)N1CCN(C)CC1 [Compound 774]
IL-17A/A inhibition (pIC50): X1b (compounds were evaluated up to 10 uM and inhibited activity at 10 uM by less than 20%)

CCC(=O)N[C@H](Cc1ccc(NC(=O)[C@@H](NC(=O)c2ccnn2CC)c2ccccc2)c(F)c1)C(=O)N1CCN(C)CC1 [Compound 775]
IL-17A/A inhibition (pIC50): X1b (compounds were evaluated up to 10 uM and inhibited activity at 10 uM by less than 20%)

CCC(=O)N[C@H](Cc1ccc(NC(=O)[C@@H](NC(=O)Cc2c[nH]cn2)C2CCCCC2)c(F)c1)C(=O)N1CCN(C)CC1 [Compound 776]
IL-17A/A inhibition (pIC50): X1b (compounds were evaluated up to 10 uM and inhibited activity at 10 uM by less than 20%)

CCC(=O)N[C@H](Cc1ccc(NC(=O)[C@@H](NC(=O)c2c(CO)noc2C)C2CCCCC2)c(F)c1)C(=O)N1CCN(C)CC1 [Compound 777]
IL-17A/A inhibition (pIC50): X1b (compounds were evaluated up to 10 uM and inhibited activity at 10 uM by less than 20%)

CCC(=O)N[C@H](Cc1ccc(NC(=O)[C@@H](NC(=O)Cc2ccc(=O)[nH]c2)C2CCCCC2)c(F)c1)C(=O)N1CCN(C)CC1 [Compound 778]
IL-17A/A inhibition (pIC50): X1b (compounds were evaluated up to 10 uM and inhibited activity at 10 uM by less than 20%)

CCC(=O)N[C@H](Cc1ccc(NC(=O)[C@@H](NC(=O)c2ccc(C(=O)NC)s2)C2CCCCC2)c(F)c1)C(=O)N1CCN(C)CC1 [Compound 779]
IL-17A/A inhibition (pIC50): X1a (compounds were evaluated up to 10 uM and did not inhibit activity by >80%, however they showed some activity at 10 uM (less than 80% and more than 20%))

CCC(=O)N[C@H](Cc1ccc(NC(=O)[C@@H](NC(=O)c2ccc(C(=O)NC)n2C)C2CCCCC2)c(F)c1)C(=O)N1CCN(C)CC1 [Compound 780]
IL-17A/A inhibition (pIC50): X1b (compounds were evaluated up to 10 uM and inhibited activity at 10 uM by less than 20%)

CCC(=O)N[C@H](Cc1ccc(NC(=O)[C@@H](NC(=O)c2cnc(C(=O)NC)[nH]2)C2CCCCC2)c(F)c1)C(=O)N1CCN(C)CC1 [Compound 781]
IL-17A/A inhibition (pIC50): X1b (compounds were evaluated up to 10 uM and inhibited activity at 10 uM by less than 20%)

CCC(=O)N[C@H](Cc1ccc(NC(=O)[C@@H](NC(=O)Cc2cccc(O)c2)C2CCCCC2)c(F)c1)C(=O)N1CCN(C)CC1 [Compound 782]
IL-17A/A inhibition (pIC50): X1b (compounds were evaluated up to 10 uM and inhibited activity at 10 uM by less than 20%)

CCC(=O)N[C@H](Cc1ccc(NC(=O)[C@@H](NC(=O)c2cnc(C(=O)NCC(F)F)[nH]2)C2CCCCC2)c(F)c1)C(=O)N1CCN(C)CC1 [Compound 783]
IL-17A/A inhibition (pIC50): X1b (compounds were evaluated up to 10 uM and inhibited activity at 10 uM by less than 20%)
